Measured values as given in patent US10941121B2 (AZIENDA OSPEDALIERA UNIVERSITARIA SENESE, priority 2015, dated 2021).

Legend:
[1] = Cytotoxicity, MTT method in HuH7.5 cells; assay type: cell-based; settings: human, non-infected, read-out: HCV CC50
Method: After 4 h of incubation at 37° C. in a humidified atmosphere with 5% CO2, the amount of formazan produced was quantified spectrophotometrically at 550/620 nm (C. Pannecouque et al, Nature protocol 2008; 3 (3): 427-434). […] These assays were done in duplicate.

[2] = Parallel Artificial Membrane Permeability Assay (PAMPA); assay type: in vitro ADME
[3] = test system: HCV Jc1 (genotype 2a virus); experiment: HCV infectious cell culture system, NS5A immunostaining; settings: Hepatitis C virus, Huh7.5, read-out: HCV EC50
JEV strain (NJ2008) = experiment: JEV infectious cell culture system, plaque formation assay in BHK-21 cells; settings: Japanese encephalitis virus, BHK-21, read-out: JEV EC50

Which CC50 [1] does the source give for `CCCCc1cn(-c2ccc(NC(=O)Nc3ccccc3C)cc2)nn1` [Compound 20a, 1-(4-(4-butyl-1H-1,2,3-triazol-1-yl)phenyl)-3-o-tolylurea] here?
The CC50 was 10.1 µM.

What about the Papp at 5 h, 0.5 mM ([2]; PAMPA, phosphatidylcholine in dodecane, pH 7.4, 5 h, room temperature, read-out: PAMPA Papp *10^−6 (cm/s) GI) of the same compound?
The Papp at 5 h, 0.5 mM was 2.86 ×10⁻⁶ cm/s.

What about the “PAMPA membrane retention (RM %)” value ([2]; value in brackets in the PAMPA cell) of the same compound?
Its value is 19.1%.

And the EC50 [3]?
Its EC50 is 3.8 µM.

What about the EC50 (JEV strain (NJ2008)) of the same compound?
The EC50 was 20 µM.
